Test results as given in patent US20210391038A1, “SPECIFICALLY-SHAPED CRYSTAL OF COMPOUND AND METHOD FOR PRODUCING SAME” (TOWA PHARMACEUTICAL CO., LTD., priority 2018, published 2021).
Counter-ions that a name gives are not always drawn.

Assay: Measurement of critical degree of supersaturation of spherulite
Type: physicochemical
Text: “Supersaturated solution” in the present description means a solution in a state of containing a solute exceeding the solubility. As the degree of supersaturation, “degree of supersaturation” can be used. Regarding the degree of supersaturation, when the concentration (mass concentration (g/g)) of a compound dissolved in a supersaturated solution is defined as C and the solubility of the compound is defined as Cs, the degree of supersaturation S can be represented by the following formula: […]
“Critical degree of supersaturation” in the present description means the lowest degree of supersaturation required to obtain a specifically-shaped crystal. […] The value of a critical degree of supersaturation varies depending on the shape of a crystal. For example, all of values of a critical degree of supersaturation required to obtain a plate crystal, a critical degree of supersaturation required to obtain a needle crystal, and a critical degree of supersaturation required to obtain a spherulite are different. The critical degree of supersaturation required to obtain a spherulite is higher than the critical degree of supersaturation required to obtain a plate crystal or a needle crystal.
The actual measured value of the critical degree of supersaturation (S*) can be measured as follows:
(1) 100 particles are observed by SEM. (2) 5 to 10 particles whose shape is close to a desired specific shape are selected, and the shape is evaluated. In particular, when the desired specific shape is a sphere, the sphericity is evaluated. (3) Based on the evaluation index of the shape, whether the selected particles have the desired specific shape or not is determined. In particular, when the desired specific shape is a sphere, the case where the sphericity is 0.60 or more is determined as a spherulite. (4) The above-mentioned operation is performed for each sample having a different degree of supersaturation during crystallization, and the minimum value of a degree of supersaturation having the specifically-shaped particles is determined as the critical degree of supersaturation. The difference between the maximum value of a degree of supersaturation not having the specifically-shaped particles and the critical degree of supersaturation should be 20% or less.
The critical degree of supersaturation of a spherulite of ketotifen fumarate was determined as follows. To 2.0 g of ketotifen fumarate, 10 mL (5 v/w) of methanol was added, followed by reflux to completely dissolve. This solution was added dropwise to 50 mL of isopropanol at 20° C. to prepare a supersaturated solution of ketotifen fumarate. The degree of supersaturation of the supersaturated solution at the end of dropwise addition was 9.0. The supersaturated solution was crystallized. The crystal was collected by filtration, followed by drying under reduced pressure at 40° C., thus obtaining a crystal of ketotifen fumarate.
Similarly, when a substrate and a solvent different from those mentioned above are used, a plurality of samples having a different degree of supersaturation are prepared and crystallized, and then the critical degree of supersaturation of the spherulite was measured.

In the case of `N[C@@H](CCC(=O)N[C@@H](CS)C(=O)NCC(=O)O)C(=O)O` [Glutathione], the “actual measured value of the critical degree of supersaturation” value (“actual measured value” below) is reported as 18.7 and the “Critical degree of supersaturation S Experimental value” (entry 47, solvent 1 H2O, solvent 2 EtOH, solvent 2/solvent 1 ratio 5, crystallization 20 °C) is reported as 18.7.
With `COc1cccc(C2(O)CCCCC2CN(C)C)c1` (centres unmarked) [Tramadol hydrochloride] the “actual measured value” value was 4.2, the “Critical degree of supersaturation S Experimental value” (entry 36, solvent 1 MeOH, solvent 2 i-PrOAc, solvent 2/solvent 1 ratio 20, crystallization 10 °C) was 4.7 and the “Critical degree of supersaturation S Experimental value” (entry 37, solvent 1 IPA, solvent 2 TBME, solvent 2/solvent 1 ratio 30, crystallization 10 °C) was 11.1. For the same compound, the “Critical degree of supersaturation S Experimental value” (entry 38, solvent 1 EtOH, solvent 2 TBME, solvent 2/solvent 1 ratio 30, crystallization 10 °C) was 22.4.
In the case of `CC[C@H]1OC(=O)[C@H](C)[C@@H](O[C@H]2C[C@@](C)(OC)[C@@H](O)[C@H](C)O2)[C@H](C)[C@@H](O[C@@H]2O[C@H](C)C[C@H](N(C)C)[C@H]2O)[C@](C)(O)C[C@@H](C)CN(C)[C@H](C)[C@@H](O)[C@]1(C)O` [Azithromycin monohydrate], the “Critical degree of supersaturation S Experimental value” (entry 11, solvent 1 IPA, solvent 2 H2O, solvent 2/solvent 1 ratio 10, crystallization 0 °C) is reported as 3.2, the “Critical degree of supersaturation S Experimental value” (entry 14, solvent 1 IPA, solvent 2 H2O, solvent 2/solvent 1 ratio 20, crystallization 0 °C) is reported as 1.6 and the “Critical degree of supersaturation S Experimental value” (entry 15, solvent 1 Acetone, solvent 2 H2O, solvent 2/solvent 1 ratio 10, crystallization 0 °C) is reported as 6.2. The “Critical degree of supersaturation S Experimental value” (entry 16, solvent 1 EtOH, solvent 2 H2O, solvent 2/solvent 1 ratio 20, crystallization 0 °C) was 7.1, the “Critical degree of supersaturation S Experimental value” (entry 17, solvent 1 MeOH, solvent 2 H2O, solvent 2/solvent 1 ratio 20, crystallization 0 °C) was 7.5 and the “Critical degree of supersaturation S Experimental value” (entry 18, solvent 1 IPA, solvent 2 H2O, solvent 2/solvent 1 ratio 10, crystallization 20 °C) was 11.1.
For `COc1ccc2[n-]c([S+]([O-])Cc3ncc(C)c(OC)c3C)nc2c1.COc1ccc2[n-]c([S+]([O-])Cc3ncc(C)c(OC)c3C)nc2c1.[Mg+2]` (centres unmarked) [Esomeprazolc magnesium hydrate], the “Critical degree of supersaturation S Experimental value” (entry 1, solvent 1 MeOH, solvent 2 H2O, solvent 2/solvent 1 ratio 1, crystallization 35 °C) was 1.4.
For `CC[C@H]1OC(=O)[C@H](C)[C@@H](O[C@H]2C[C@@](C)(OC)[C@@H](O)[C@H](C)O2)[C@H](C)[C@@H](O[C@@H]2O[C@H](C)C[C@H](N(C)C)[C@H]2O)[C@](C)(OC)C[C@@H](C)C(=O)[C@H](C)[C@@H](O)[C@]1(C)O` [Clarithromycin], the “actual measured value” value was 17, the “Critical degree of supersaturation S Experimental value” (entry 8, solvent 1 THF, solvent 2 H2O, solvent 2/solvent 1 ratio 25, crystallization 0 °C) was 11 and the “Critical degree of supersaturation S Experimental value” (entry 9, solvent 1 THF, solvent 2 H2O, solvent 2/solvent 1 ratio 70, crystallization 0 °C) was 26. For the same compound, the “Critical degree of supersaturation S Experimental value” (entry 10, solvent 1 THF, solvent 2 H2O, solvent 2/solvent 1 ratio 75, crystallization 10 °C) was 17.
For `Cc1ccccc1C(=O)Nc1ccc(C(=O)N2CCCC(O)c3cc(Cl)ccc32)c(C)c1` (centres unmarked) [Tolvaptan], the “actual measured value” value was 4.8, the “Critical degree of supersaturation S Experimental value” (entry 54, solvent 1 MeOH, solvent 2 H2O, solvent 2/solvent 1 ratio 0.4, crystallization 0 °C) was 4.8 and the “Critical degree of supersaturation S Experimental value” (entry 55, solvent 1 MeOH, solvent 2 H2O, solvent 2/solvent 1 ratio 0.4, crystallization 10 °C) was 7.1.
In the case of `Cn1c(=O)c2[nH]cnc2n(C)c1=O.[Mg]` [Theophylline magnesium salt], the “actual measured value” value is reported as 3.5, the “Critical degree of supersaturation S Experimental value” (entry 28, solvent 1 MeOH, solvent 2 H2O, solvent 2/solvent 1 ratio 3, crystallization 0 °C) is reported as 3.5 and the “Critical degree of supersaturation S Experimental value” (entry 29, solvent 1 EtOH, solvent 2 H2O, solvent 2/solvent 1 ratio 3, crystallization 0 °C) is reported as 3.9. The “Critical degree of supersaturation S Experimental value” (entry 30, solvent 1 Acetone, solvent 2 H2O, solvent 2/solvent 1 ratio 3, crystallization 0 °C) was 6.3 and the “Critical degree of supersaturation S Experimental value” (entry 31, solvent 1 IPA, solvent 2 H2O, solvent 2/solvent 1 ratio 3, crystallization 0 °C) was 6.6.
For `Cc1cccc(C)c1NC(=O)CC12CCCN1CCC2.Cl` [Pilsicainide hydrochloride anhydride], the “actual measured value” value was 27 and the “Critical degree of supersaturation S Experimental value” (entry 35, solvent 1 IPA, solvent 2 Toluene, solvent 2/solvent 1 ratio 10, crystallization 5 °C) was 27.
With `CN1CCC(=C2c3ccccc3CC(=O)c3sccc32)CC1` [Ketotifen fumarate] the “Critical degree of supersaturation S Experimental value” (entry 4, solvent 1 MeOH, solvent 2 IPA, solvent 2/solvent 1 ratio 5, crystallization 0 °C) was 2.5, the “Critical degree of supersaturation S Experimental value” (entry 5, solvent 1 MeOH, solvent 2 IPA, solvent 2/solvent 1 ratio 5, crystallization 50 °C) was 4 and the “Critical degree of supersaturation S Experimental value” (entry 6, solvent 1 MeOH, solvent 2 2-BuOH, solvent 2/solvent 1 ratio 5, crystallization 0 °C) was 1.6. The “Critical degree of supersaturation S Experimental value” (entry 7, solvent 1 MeOH, solvent 2 2-BuOH, solvent 2/solvent 1 ratio 5, crystallization 20 °C) was 4.4 and the “critical degree of supersaturation of a spherulite” value (methanol to isopropanol 1:5, temperature during crystallization 20° C.) was 4.0.
With `Cc1c(OCC(F)(F)F)ccnc1C[S+]([O-])c1nc2ccccc2[nH]1` (centres unmarked) [Lansoprazole] the “actual measured value” value was 10.9, the “Critical degree of supersaturation S Experimental value” (entry 2, solvent 1 MeOH, solvent 2 H2O, solvent 2/solvent 1 ratio 3, crystallization 0 °C) was 6.9 and the “Critical degree of supersaturation S Experimental value” (entry 20, solvent 1 MeOH, solvent 2 H2O, solvent 2/solvent 1 ratio 3, crystallization 15 °C) was 12.6.
With `O=C(O)CCCN1CCC(O[C@@H](c2ccc(Cl)cc2)c2ccccn2)CC1.O=S(=O)(O)c1ccccc1` [Bepotastine besilate] the “actual measured value” value was 36.4 and the “Critical degree of supersaturation S Experimental value” (entry 57, solvent 1 EtOH, solvent 2 AcOiPr, solvent 2/solvent 1 ratio 10, crystallization 0 °C) was 36.4.
With `Cc1cc(N2CCN([C@@H]3CN[C@H](C(=O)N4CCSC4)C3)CC2)n(-c2ccccc2)n1` [Teneligliptin hydrobromide hydrate] the “actual measured value” value was 7.9, the “Critical degree of supersaturation S Experimental value” (entry 32, solvent 1 MeOH, solvent 2 1-BuOH, solvent 2/solvent 1 ratio 10, crystallization 0 °C) was 5.2 and the “Critical degree of supersaturation S Experimental value” (entry 33, solvent 1 MeOH, solvent 2 1-BuOH, solvent 2/solvent 1 ratio 10, crystallization 20 °C) was 7.9. The “Critical degree of supersaturation S Experimental value” (entry 34, solvent 1 MeOH, solvent 2 1-BuOH, solvent 2/solvent 1 ratio 10, crystallization 40 °C) was 12.6.
